For eight compounds, IC50 results are on record in ChEMBL document CHEMBL4270540, “Collagen Prolyl 4-Hydroxylase as a Therapeutic Target” (J Med Chem, 2018).

Test [1] is described as follows: Inhibition of collagen prolyl 4-hydroxylase (unknown origin). The arrangement: species or system Homo sapiens.
Test [2] in a line: Inhibition of chicken collagen prolyl 4-hydroxylase. The arrangement: species or system Gallus gallus.
A short description of test [3]: Inhibition of collagen prolyl 4-hydroxylase (unknown origin) using 2-ketoglutarate as co-factor assessed as formation of [14C]succinate by ion-exchnage chromatographic method. On the set-up: species or system Homo sapiens.

SMILES strings stand for the structures.

With `COc1ccc(S(=O)(=O)NC(=O)c2ccc(C(=O)O)nc2)cc1`, the IC50 (in general, the concentration that gives 50% inhibition) in test [1] turned out to be 1 µM.

Turning to `O=C(O)c1ncc2ccccc2c1O`, the half-inhibitory concentration (IC50) in test [2] was 0.19 µM.

As to `O=C(O)c1nnc2ccccc2c1O`, the IC50 in test [2] came out at 0.02 µM.

For `C[C@H](NC(=O)C(=O)O)C(=O)O`, in test [3], the IC50 came out at 38.2 µM.

Turning to `C[C@@H](NC(=O)C(=O)O)C(=O)O`, the IC50 in test [3] was 621 µM.

Consider `CC(NC(=O)C(=O)O)C(=O)O` (racemic), for which, in test [3], the half-inhibitory concentration (IC50) was 90.7 µM.

As for `O=C(O)CNC(=O)C(=O)O` [N-OXALYLGLYCINE], in test [3], the half-inhibitory concentration (IC50) was 2.89 µM.

With `O=C(O)c1ccc(C(=O)O)nc1` [PYRIDINE-2,5-DICARBOXYLIC ACID], 5.5 µM corresponded to half-maximal inhibition in test [1] (IC50).
